System: co-cultures of HaCaT keratinocytes and neonatal primary human epidermal melanocytes
Assay: Melanin content assay (cellular melanin content in keratinocyte-melanocyte co-cultures)
Type: cell-based
Conditions: 72 h treatment, average % reduction in cellular melanin content; for inhibition at 10000 µM: single active at 10 mM
Method: Neonatal primary human epidermal melanocytes were sourced from Life Technologies. Melanocytes were maintained in Medium 254 supplemented with Human Melanocyte Growth Supplement-2 (MGM).
HaCaT keratinocytes were maintained in DMEM medium containing 10% heat inactivated foetal bovine serum. All media were also supplemented with 10 U/mL penicillin G and 0.1 mg/mL streptomycin sulphate. Both cell types were maintained at 37° C. in a humidified incubator with 5% CO2 atmosphere.
Maintenance and sub-culturing of cells were carried out as per the manufacturer's instructions. For setup of co-cultures, HaCaT keratinocytes and melanocytes, each 40,000 cells were mixed (1:1 ratio) in 1 mL of a 1:1 mix of MGM:GM (KGM: EpiLife Medium supplemented with Human Keratinocyte Growth Supplement) and seeded as such per well, in 12 well Nunc plates.
Actives were prepared in media and test concentrations were added to cells along with relevant controls 24 h post seeding. After 72 h of active treatment, cell viability (using calcein method) and measurement of cellular melanin content was determined as described below.
After calcein fluorescence readings were obtained, cells were drained and fresh 0.15 mL of 1N NaOH (in 10% DMSO) per well was added. Cells were lysed by resuspension and incubated (60° C. for 1 h). Then, 0.1 mL of this lysate was transferred to a fresh 384-well plate and OD was measured at 405 nm in a TECAN M1000 plate reader (estimate of relative melanin content).

Structure (SMILES) | inhibition at 10000 µM | inhibition at 100 µM (single active at 100 uM) | inhibition at 1000 µM (single active at 1 mM)
NC(=O)c1cccnc1 [3-pyridinecarboxamide] | 0% |  | 
O=C(O)CCN1CCCCC1 [1PP, 1-piperidinepropionic acid] | 0% | 1% | -5%

Source: patent US20210085585A1, “A PERSONAL CARE COMPOSITION” (Conopco, Inc., d/b/a UNILEVER, priority 2017, published 2021)
